Assay results: publication PMC5602572, “New carboxamide derivatives bearing benzenesulphonamide as a selective COX-II inhibitor: Design, synthesis and structure-activity relationship” (PLoS ONE, 2017)
Read-outs that look alike come from different tables or passages of the source.

How the values were obtained:
[1] = system: carrageenan induced rat paw edema; assay: carrageenan-induced rat paw edema bioassay; format: in vivo; details: % inhibition of carrageenan induced rat paw edema, intraperitoneal; for Anti-inflammatory activity, 0.5 h (%): 0.5 h after treatment; for Anti-inflammatory activity, 1 h (%): 1 h after treatment; for Anti-inflammatory activity, 2 h (%): 2 h after treatment; for Anti-inflammatory activity, 3 h (%): 3 h after treatment
Description: Male albino rats weighing 300 g where purchased from the Department of Zoology and Environmental Biology, University of Nigeria, Nsukka and kept at room temperature in a light controlled animal house. They were fasted with free access to water at least 12 h prior to the experiments. […] The positive control received celecoxib while the negative control received only the vehicle. Edema was produced by injecting 0.2 mL of a solution of 1% carrageenan in the hind paw. The rats were injected intraperitoneally with 1 mL suspension in 0.5% methylcellulose of the tested compounds and reference drug. Paw volume was measured by water displacement with a plethysmometer (UGO BASILE) before, 30 min, 1 h, 2 h and 3 h after treatment. The percentage was calculated by the following equation [25].
Anti-inflammatory activity (%) = (1-D/C)[…], where D represents the difference in paw volume before and after drug administration to the rats and C represents the difference of volume in the control groups. The approval for the use of animal was obtained from the University of Nigeria committee on experimental animal use. No sign of death was observed during the experiment.

[2] = Determination of LD50 in mice; details: mouse, in vivo, ip; male mice, intraperitoneal, observation 72 h
Description: Male mice were divided into various groups and test compounds were administered in various doses intraperitoneally. […] All behavioral changes and deaths during the observation periods were recorded. The percentage of death at each dose level was then calculated, converted to probits and the LD50 (μM/kg) values were calculated. To observe the health status of the mice, they were monitored 4 times a day. […] For the purpose of ameliorating the suffering of the dying mice, CO2 euthanasia was applied. All the dead mice were disposed in bio-safety containers in accordance with local standard protocols. The mortality rate in each group was calculated according to the formula: Mortality rate(%)=(the number of dead mice/the number of mice in the group)×100.

COX-1 = biological target: T1, COX-1 (Ovis aries, UniProt P05979); assay: In vitro cyclooxygenase inhibitory assay (Cayman colorimetric COX (ovine) inhibitor screening kit), COX-1; format: biochemical; details: read-out: COX-1 (%) inhibition
T1 construct: purchased Cayman chemicals, USA
T1 sequence (P05979 25-600): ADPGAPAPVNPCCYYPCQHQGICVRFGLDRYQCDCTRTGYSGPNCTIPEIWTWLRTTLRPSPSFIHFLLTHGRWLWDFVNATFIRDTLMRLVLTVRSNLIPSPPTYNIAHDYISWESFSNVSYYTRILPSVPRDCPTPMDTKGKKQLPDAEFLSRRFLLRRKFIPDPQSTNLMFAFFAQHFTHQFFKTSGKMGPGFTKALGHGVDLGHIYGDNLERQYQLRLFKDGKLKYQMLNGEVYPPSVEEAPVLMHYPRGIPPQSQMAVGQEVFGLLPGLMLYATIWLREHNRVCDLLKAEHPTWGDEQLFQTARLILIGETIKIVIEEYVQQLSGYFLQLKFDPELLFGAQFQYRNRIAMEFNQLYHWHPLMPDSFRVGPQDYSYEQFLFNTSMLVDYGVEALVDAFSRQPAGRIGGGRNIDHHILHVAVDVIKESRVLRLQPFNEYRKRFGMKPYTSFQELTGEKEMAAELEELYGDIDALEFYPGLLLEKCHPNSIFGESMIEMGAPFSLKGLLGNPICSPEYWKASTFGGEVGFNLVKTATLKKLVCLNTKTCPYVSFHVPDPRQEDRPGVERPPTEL
Description: (§1) The calculations were performed as per the kit guidelines.

COX-2 = biological target: T2, COX-2 (Ovis aries, UniProt P79208); assay: In vitro cyclooxygenase inhibitory assay (Cayman colorimetric COX (ovine) inhibitor screening kit), COX-2; format: biochemical; details: for inhibition at 2 µM: read-out: COX-2 (%) inhibition; for S I (selectivity COX-2/COX-1): ratio of % inhibition COX-2/COX-1 at 2.0 μM
T2 construct: purchased Cayman chemicals, USA
T2 sequence (P79208 17-603): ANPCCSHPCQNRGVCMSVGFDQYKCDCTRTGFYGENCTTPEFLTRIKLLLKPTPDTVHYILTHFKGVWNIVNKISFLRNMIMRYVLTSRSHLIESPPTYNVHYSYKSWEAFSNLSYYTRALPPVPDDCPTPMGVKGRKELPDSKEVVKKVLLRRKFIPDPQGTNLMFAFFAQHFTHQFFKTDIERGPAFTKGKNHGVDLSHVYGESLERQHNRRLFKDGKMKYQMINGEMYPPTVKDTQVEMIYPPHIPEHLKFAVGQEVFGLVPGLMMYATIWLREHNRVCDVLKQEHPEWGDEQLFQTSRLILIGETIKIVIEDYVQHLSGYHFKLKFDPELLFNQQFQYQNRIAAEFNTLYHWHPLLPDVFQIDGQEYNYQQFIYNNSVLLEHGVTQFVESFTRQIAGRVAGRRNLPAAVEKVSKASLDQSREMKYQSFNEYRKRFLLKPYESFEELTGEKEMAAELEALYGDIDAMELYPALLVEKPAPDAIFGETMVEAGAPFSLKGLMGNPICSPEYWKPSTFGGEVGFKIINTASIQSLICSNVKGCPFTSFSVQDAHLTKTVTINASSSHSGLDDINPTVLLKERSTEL
Description: as §1

Structure (SMILES) | Anti-inflammatory activity, 0.5 h (%) [1] | Anti-inflammatory activity, 1 h (%) [1] | Anti-inflammatory activity, 2 h (%) [1] | Anti-inflammatory activity, 3 h (%) [1] | LD50 at 72 h [2] | inhibition at 2 µM (COX-1; concentration of 2.0 μM) | inhibition at 2 µM (COX-2; concentration of 2.0 μM) | S I (selectivity COX-2/COX-1) (COX-2) | inhibition at 2 µM (COX-1) | inhibition at 2 µM (COX-2)
Cc1ccc(-c2cc(C(F)(F)F)nn2-c2ccc(S(N)(=O)=O)cc2)cc1 [Celecoxib, celecoxib, reference compound] | 56.92% | 63.53% | 64.84% | 82.60% | 9.8 µmol/kg | – | – | – | – | –
Cc1ccnc(NC(=O)CN(C(=O)c2ccccc2)S(=O)(=O)c2ccc([N+](=O)[O-])cc2)c1 [Compound 7a, N-(4-methylpyridin-2-yl)-2-[N-(4-nitrobenzenesulfonyl)-1-phenylformamido]acetamide] | 24.62% | 18.82% | 14.24% | 11.85% | 12.9 µmol/kg | 14% | 49% | 3.5 | – | –
Cc1ccnc(NC(=O)[C@H](Cc2ccccc2)N(C(=O)c2ccccc2)S(=O)(=O)c2ccc([N+](=O)[O-])cc2)c1 [Compound 7b, (2S)-N-(4-methylpyridin-2-yl)-2-[N-(4-nitrobenzenesulfonyl)-1-phenylformamido]-3-phenyl propanamide] | 32.31% | 17.06% | 17.03% | 12.96% | 14.2 µmol/kg | 8% | 52% | 6.5 | – | –
Cc1ccnc(NC(=O)[C@H](Cc2cc3ccccc3[nH]2)N(C(=O)c2ccccc2)S(=O)(=O)c2ccc([N+](=O)[O-])cc2)c1 [Compound 7c, (2S)-3-(1H-indol-2-yl)-N-(4-methylpyridin-2-yl)-2-[N-(4-nitrobenzenesulfonyl)-1-phenylformamido]propanamide] | 49.23% | 62.35% | 75.75% | 88.89% | 8.3 µmol/kg | – | – | – | 2% | 70%
Cc1ccnc(NC(=O)[C@H](CC(C)C)N(C(=O)c2ccccc2)S(=O)(=O)c2ccc([N+](=O)[O-])cc2)c1 [Compound 7d, (2S)-4-Methyl-N-(4-methylpyridin-2-yl)-2-[N-(4-nitrobenzenesulfonyl)-1-phenylformamido]pentanamide] | 52.31% | 17.65% | 10.54% | 10.15% | 12.6 µmol/kg | 10% | 20% | 2.00 | – | –
CCC(C)[C@@H](C(=O)Nc1cc(C)ccn1)N(C(=O)c1ccccc1)S(=O)(=O)c1ccc([N+](=O)[O-])cc1 (stereo partly drawn) [Compound 7e, (2S)-3-Methyl-N-(4-methylpyridin-2-yl)-2-[N-(4-nitrobenzenesulfonyl)-1-phenylformamido]pentanamide] | 26.15% | 25.88% | 19.38% | 16.05% | 13.1 µmol/kg | 4% | 17% | 4.25 | – | –
Cc1ccnc(NC(=O)[C@H](C(C)C)N(C(=O)c2ccccc2)S(=O)(=O)c2ccc([N+](=O)[O-])cc2)c1 [Compound 7f, (2S)-3-Methyl-N-(4-methylpyridin-2-yl)-2-[N-(4-nitrobenzenesulfonyl)-1-phenylformamido]butanamide] | 24.62% | 17.65% | 14.84% | 1.85% | 15.8 µmol/kg | 15% | 54% | 3.6 | – | –
Cc1ccnc(NC(=O)[C@@H]2CC(O)CN2S(=O)(=O)c2ccc([N+](=O)[O-])cc2)c1 (stereo partly drawn) [Compound 7g, (2S)-4-Hydroxy-N-(4-methylpyridin-2-yl)-1-(4-nitrobenzenesulfonyl)pyrrolidine-2-carboxamide] | 46.92% | 53.53% | 58.84% | – | 9.9 µmol/kg | – | – | – | 18% | 20%
Cc1ccnc(NC(=O)[C@@H]2CCCN2S(=O)(=O)c2ccc([N+](=O)[O-])cc2)c1 [Compound 7h, (2S)-N-(4-methylpyridin-2-yl)-1-(4-nitrobenzenesulfonyl)pyrrolidine-2-carboxamide] | 27.69% | 17.06% | 16.59% | 16.05% | 10.7 µmol/kg | – | – | – | 30% | 13%
Cc1ccc(S(=O)(=O)N(CC(=O)Nc2cc(C)ccn2)C(=O)c2ccccc2)cc1 [Compound 7i, 2-[N-(4-methylbenzenesulfonyl)-1-phenylformamido]-N-(4-methylpyridin-2-yl)acetamide] | 24.62% | 23.53% | 16.78% | 12.47% | 18.2 µmol/kg | 3% | 18% | 6.00 | – | –
Cc1ccc(S(=O)(=O)N(C(=O)c2ccccc2)[C@@H](Cc2ccccc2)C(=O)Nc2cc(C)ccn2)cc1 [Compound 7j, (2S)-2-[N-(4-methylbenzenesulfonyl)-1-phenylformamido]-N-(4-methylpyridin-2-yl)-3-phenyl propanamide] | 41.54% | 40.59% | 39.84% | 36.42% | 17.6 µmol/kg | 10% | 30% | 3.00 | – | –
Cc1ccc(S(=O)(=O)N(C(=O)c2ccccc2)[C@@H](Cc2cc3ccccc3[nH]2)C(=O)Nc2cc(C)ccn2)cc1 [Compound 7k, (2S)-3-(1H-indol-2-yl)-2-[N-(4-methylbenzenesulfonyl)-1-phenylformamido]-N-(4-methylpyridin-2-yl)propanamide] | 42.12% | 56.12% | 70.89% | – | 9.2 µmol/kg | 3% | 56% | 18.67 | – | –
